Laboratory results taken from patent publication US6479531B1, “Gastrin and cholecystokinin receptor ligands” (James Black Foundation Limited, priority 1998, dated 2002).

What was measured:
gastrin receptor = molecular target: T1, gastrin receptor (Rattus norvegicus, UniProt P30553); assay: gastrin antagonist activity in immature rat stomach assay (pentagastrin dose-response, acid secretion); details: isolated immature rat stomach, cumulative pentagastrin dose-response curves, read-out: Gastrin pKb (converted)
T1 construct: The stomach was excised and flushed with ca. 1 ml of unbuffered physiological saline solution; from tissue; host or cells: isolated whole stomach of immature rats (ca. 21 days old)
T1 sequence (P30553 1-452): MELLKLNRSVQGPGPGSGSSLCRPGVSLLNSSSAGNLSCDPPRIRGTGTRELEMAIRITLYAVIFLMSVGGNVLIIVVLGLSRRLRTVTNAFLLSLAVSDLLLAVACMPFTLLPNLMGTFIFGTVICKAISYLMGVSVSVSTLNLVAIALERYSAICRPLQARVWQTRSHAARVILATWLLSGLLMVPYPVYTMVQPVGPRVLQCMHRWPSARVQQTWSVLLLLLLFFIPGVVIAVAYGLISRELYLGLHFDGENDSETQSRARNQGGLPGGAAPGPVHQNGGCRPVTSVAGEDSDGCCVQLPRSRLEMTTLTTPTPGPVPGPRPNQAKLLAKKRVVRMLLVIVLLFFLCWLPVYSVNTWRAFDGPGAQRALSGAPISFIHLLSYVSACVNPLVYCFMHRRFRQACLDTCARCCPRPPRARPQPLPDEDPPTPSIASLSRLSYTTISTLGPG
Procedure, shortened: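 Isolated, lumen-perfused stomach from immature rats (33-50 g, ca. 21 days) in a 37° organ bath with 3×10^−8 M 5-methylfurmethide, gassed 95% O2/5% CO2. Compound added serosally after 120 min stabilisation; cumulative pentagastrin dose-response curves begun 60 min later, acid secretion followed by perfusate pH.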

CCKB receptor = molecular target: T2, CCKB receptor (Mus musculus, UniProt P56481); assay: CCKB receptor radioligand binding assay in mouse cortical membranes; details: [125I]-CCK8(S) 200 pM, 150 min at 21±3°, read-out: CCKB pKi (converted)
T2 construct: The whole brains from male mice (CD1 22-25 g; Charles River) were removed; from tissue; host or cells: cerebral cortex membranes of male CD1 mice
T2 sequence (P56481 1-453): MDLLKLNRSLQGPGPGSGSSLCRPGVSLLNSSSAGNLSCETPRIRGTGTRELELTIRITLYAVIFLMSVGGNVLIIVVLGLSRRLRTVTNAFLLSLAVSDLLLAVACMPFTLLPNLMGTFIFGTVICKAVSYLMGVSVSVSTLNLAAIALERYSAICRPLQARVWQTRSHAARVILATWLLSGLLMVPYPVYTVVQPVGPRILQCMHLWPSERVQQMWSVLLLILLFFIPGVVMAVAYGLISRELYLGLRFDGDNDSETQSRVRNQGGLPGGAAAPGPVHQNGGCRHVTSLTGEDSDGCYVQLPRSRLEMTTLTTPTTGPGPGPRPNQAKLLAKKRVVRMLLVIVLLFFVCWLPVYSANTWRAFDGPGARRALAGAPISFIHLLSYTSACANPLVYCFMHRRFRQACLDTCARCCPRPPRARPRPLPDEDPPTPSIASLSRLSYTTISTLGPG
Procedure, shortened: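 Bound radioactivity was gamma-counted after rapid GF/B filtration and cold 50 mM Tris-HCl (pH 7.4) washes. The tissue was cerebral cortex from male CD1 mice, prepared as twice-centrifuged membranes in pH 7.2 HEPES/NaCl/KCl/MgCl2/EDTA buffer with bacitracin at 20 mg/ml original wet weight.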

| SMILES | Kb (gastrin receptor) [nM] | Ki (CCKB receptor) [nM] |
| --- | --- | --- |
| O=C(O)c1cc(NC(=O)c2cc(-c3ccc4ccccc4c3)[nH]c2CC23CC4CC(CC(C4)C2)C3)cc(C(=O)O)c1 [Example 4, 5-[(2-Adamantan-1-ylmethyl-5-naphthalen-2-yl-1H-pyrrole-3-carbonyl)-amino]-isophthalic Acid] | 1620 | 87.1 |
| O=C(O)c1cccc(NC(=O)c2nc(C3CCCCC3)[nH]c2CCC2C3CC4CC(C3)CC2C4)c1 (stereo not shown) [Example 172, 3-{[5-(2-Adamantan-2-yl-ethyl)-2-cyclohexyl-1H-imidazole-4-carbonyl]-amino}-benzoic Acid] | 3.72 | 21.4 |
| CCCC(CCC)c1nc(C(=O)Nc2cccc(C(=O)O)c2)c(CCC23CC4CC(CC(C4)C2)C3)[nH]1 [Example 125, 3-{[5-(2-Adamantan-1-yl-ethyl)-2-(1-propyl-butyl)-1H-imidazole-4-carbonyl]-amino}-benzoic Acid] | 2.29 | 105 |
| CC(C)(C)c1nc(C(=O)Nc2cccc(C(=O)O)c2)c(CCC23CC4CC(CC(C4)C2)C3)[nH]1 [Example 80, 3-{[5-(2-Adamantan-1-yl-ethyl)-2-tert-butyl-1H-imidazole-4-carbonyl]-amino}-benzoic Acid] | 11 | 67.6 |
| Cc1ccccc1-c1nc(C(=O)NCC(=O)Nc2cccc(C(=O)O)c2)c(CCC23CC4CC(CC(C4)C2)C3)[nH]1 [Example 103] | 661 | 263 |
| Cc1ccc(NC(=O)c2nc([C@@H]3CCCN3C)[nH]c2CCC23CC4CC(CC(C4)C2)C3)cc1C(=O)O [Example 138, (S)-5-{[5-(2-Adamantan-1-yl-ethyl)-2-(1-methyl-pyrrolidin-2-yl)-1H-imidazole-4-carbonyl]-amino}-2-methyl-benzoic Acid] | 25.7 | 50.1 |
| Cc1ccc(NC(=O)c2nc(-c3ccccn3)[nH]c2CCC23CC4CC(CC(C4)C2)C3)cc1C(=O)O [Example 179, 5-{[5-(2-Adamantan-1-yl-ethyl)-2-pyridine-2-yl-1H-imidazole-4-carbonyl]-amino}-2methyl-benzoic Acid] | 46.8 | 40.7 |
| O=C(O)c1cccc(NC(=O)c2nc(C3CCCCC3)[nH]c2CCC2CCCCCC2)c1 [Example 166, 3-{[5-(2-Cycloheptyl-ethyl)-2-cyclohexyl-1H-imidazole-4-carbonyl]-amino}-benzoic Acid] | 12.9 | 135 |
| O=C(O)c1cccc(NC(=O)c2nc(C3CC4C=CC3C4)[nH]c2CCC23CC4CC(CC(C4)C2)C3)c1 (racemic) [Example 116, (±)-endo-3-{[5-(2-Adamantan-1-yl-ethyl)-2-bicyclo[2.2.1]hept-5-ene-2-yl-1H-imidazole-4-carbonyl]-amino}-benzoic Acid] | 2.14 | 13.5 |
| O=C(O)c1cccc(NC(=O)c2nc(C3CCCCC3)[nH]c2CCCC23CC4CC(CC(C4)C2)C3)c1 [Example 171, 3-{[5-(3-Adamantan-1-yl-propyl)-2-cyclohexyl-1H-imidazole-4-carbonyl]-amino}-benzoic Acid] | 38.9 | 141 |
| CC1(C)C2CC=C(c3nc(C(=O)Nc4cccc(C(=O)O)c4)c(CCC45CC6CC(CC(C6)C4)C5)[nH]3)C1C2 (stereo not shown) [Example 192, 3-{[5-(2-Adamantan-1-yl-ethyl)-2-(6,6-dimethyl-bicyclo[3.1.1]hept-2-en-2-yl)-1H-imidazole-4-carbonyl]-amino}-benzoic Acid] | 141 | 66.1 |
| O=C(O)c1cccc(NC(=O)c2nc(-c3ccccc3F)[nH]c2CCC23CC4CC(CC(C4)C2)C3)c1 [Example 50, 3-{[5-(2-Adamantan-1-yl-ethyl)-2-(2-fluoro-phenyl)-1H-imidazole-4-carbonyl]-amino}-benzoic Acid] | 26.3 | 331 |
| CCC(CC)c1nc(C(=O)Nc2ccc(C)c(C(=O)O)c2)c(CCC23CC4CC(CC(C4)C2)C3)[nH]1 [Example 113, 5{-[5-(2-Adamantan-1-yl-ethyl)-2-(1-ethyl-propyl)-1H-imidazole-4-carbonyl]-amino}-2-methyl-benzoic Acid] | 5.5 | 7.24 |
| O=C(O)c1cccc(NC(=O)c2nc(-c3ccccc3)[nH]c2CC2CCCCCC2)c1 [Example 26, 3-[(5-Cycloheptylmethyl-2-phenyl-1H-imidazole-4-carbonyl)-amino]-benzoic Acid] | 407 | 1480 |
| O=C(O)c1cccc(NC(=O)c2nc(-c3ccccn3)[nH]c2CCC23CC4CC(CC(C4)C2)C3)c1 [Example 178, 3-{[5-(2-Adamantan-1-yl-ethyl)-2-pyridine-2-yl-1H-imidazole-4-carbonyl]-amino}-benzoic Acid] | 166 | 245 |
| Cc1ccc(NC(=O)c2nc(-c3ccco3)[nH]c2CCC23CC4CC(CC(C4)C2)C3)cc1C(=O)O [Example 187, 5-{[5-(2-Adamantan-1-yl-ethyl)-2-furan-2-yl-1H-imidazole-4-carbonyl]-amino}-2-methyl-benzoic Acid] | 75.9 | 60.3 |
| Cc1ccccc1-c1nc(C(=O)Nc2cccc(C(=O)O)c2)c(CCc2ccccc2)[nH]1 [Example 87, 3-[(5-Phenethyl-2-o-tolyl-1H-imidazole-4-carbonyl)-amino]-benzoic Acid] | 1170 | 2690 |
| O=C(O)c1cccc(NC(=O)c2nc(C3CC4CCC3C4)[nH]c2CCC23CC4CC(CC(C4)C2)C3)c1 (racemic) [Example 115, (±)-exo-3-{[5-(2-Adamantan-1-yl-ethyl)-2-bicyclo[2.2.1]hept-2-yl-1H-imidazole-4-carbonyl]-amino}-benzoic Acid] | 6.31 | 25.7 |
| Cc1ccc(NC(=O)c2nc(C3CCCO3)[nH]c2CCC23CC4CC(CC(C4)C2)C3)cc1C(=O)O (stereo not shown) [Example 188, 5-{[5-(2-Adamantan-1-yl-ethyl)-2-(tetrahydro-furan-2-yl)-1H-imidazole-4-carbonyl]-amino}-2-methyl-benzoic Acid] | 7.76 | 25.7 |
| O=C(O)c1cc(NC(=O)c2[nH]c(-c3ccccc3)nc2CC23CC4CC(CC(C4)C2)C3)cc(C(=O)O)c1 [Example 37, 5-[(5-Adamantan-1-ylmethyl-2-phenyl-1H-imidazole-4-carbonyl)-amino]-isophthalic Acid] | 1260 | 209 |
| O=C(O)c1cccc(NC(=O)c2nc(-c3cccnc3)[nH]c2CCC23CC4CC(CC(C4)C2)C3)c1 [Example 177, 3-{[5-(2-Adamantan-1-yl-ethyl)-2-pyridine-3-yl-1H-imidazole-4-carbonyl]-amino}-benzoic Acid] | 151 | 603 |
| CC(C(=O)O)c1cccc(NC(=O)c2nc(C3CCCCC3)[nH]c2CCC23CC4CC(CC(C4)C2)C3)c1 (racemic) [Example 255, (±)-2-(3-{[5-(2-Adamantan-1-yl-ethyl)-2-cyclohexyl-1H-imidazole-4-carbonyl]-amino}-phenyl)-propionic Acid] | 178 | 1.41 |
| Nc1ccc(C(=O)O)cc1NC(=O)c1nc(C2CCCCC2)[nH]c1CCC12CC3CC(CC(C3)C1)C2 [Example 131, 3-{[5-(2-Adamantan-1-yl-ethyl)-2-cyclohexyl-1H-imidazole-4-carbonyl]-amino}-4-amino-benzoic Acid] | 339 | 407 |
| Cc1ccccc1-c1nc(NC(=O)c2cccc(C(=O)O)c2)c(CCC23CC4CC(CC(C4)C2)C3)[nH]1 [Example 92, N-[5-(2-Adamantan-1-yl-ethyl)-2-o-tolyl-1H-imidazol-4-yl]-isophthalamic Acid] | 158 | 1020 |
| Cc1ccc(NC(=O)c2nc(-c3ccccc3C)[nH]c2CCC2CCCCC2)cc1C(=O)O [Example 169, 5-{[5-(2-Cyclohexyl-ethyl)-2-o-tolyl-1H-imidazole-4-carbonyl]-amino}-2-methyl-benzoic Acid] | 75.9 | 132 |
| Cc1ccc(NC(=O)c2nc(C3CCCCC3)[nH]c2CCC23CC4CC(CC(C4)C2)C3)cc1C(=O)O [Example 135, 5-{[5-(2-Adamantan-1-yl-ethyl)-2-cyclohexyl-1H-imidazole-4-carbonyl]-amino}-2-methyl-benzoic Acid] | 22.4 | 6.17 |
